The supplement of paper PMC10307832

Key:
Assay in all cases: relative viability (nuclei count vs DMSO), 5 days (fraction); higher = more cells survive
[1] = system: EPLC-272H
Procedure, shortened: (§1)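 Values are medians from duplicate plates. Each reflects relative viability, defined as the nuclei count of treated wells over that of vehicle wells. Lung cancer cell lines in 1536-well plates were pin-tool dosed one day after seeding with one drug alone or with a fixed anchor-drug dose plus five library-drug doses (not always all listed) in √10 steps, then fixed, stained and imaged at 4× after 5 days.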

[2] = system: NCI-H1666
Procedure, shortened: as §1

[3] = system: NCI-H1975
Procedure, shortened: as §1

[4] = system: HCC-15
Procedure, shortened: as §1

[5] = system: EMC-BAC-2
Procedure, shortened: as §1

[6] = system: NCI-H358
Procedure, shortened: as §1

[7] = system: LXF-289
Procedure, shortened: as §1

[8] = system: NCI-H2023
Procedure, shortened: as §1

[9] = system: UMC-11
Procedure, shortened: as §1

[10] = system: COR-L 105
Procedure, shortened: as §1

[11] = system: HCC-78
Procedure, shortened: as §1

[12] = system: NCI-H2126
Procedure, shortened: as §1

[13] = system: NCI-H441
Procedure, shortened: as §1

[14] = system: ABC-1
Procedure, shortened: as §1

[15] = system: NCI-H2085
Procedure, shortened: as §1

[16] = system: NCI-H3122
Procedure, shortened: as §1

[17] = system: NCI-H322M
Procedure, shortened: as §1

[18] = system: NCI-H1755
Procedure, shortened: as §1

[19] = system: CAL-12T
Procedure, shortened: as §1

[20] = system: NCI-H1915
Procedure, shortened: as §1

[21] = system: ChaGo-K-1
Procedure, shortened: as §1

[22] = system: HOP-62
Procedure, shortened: as §1

COc1cc2nccc(Oc3ccc(NC(=O)Nc4cc(C)on4)c(Cl)c3)c2cc1OC [Tivozanib] + C[C@@H](Oc1cc(-c2cnn(C3CCNCC3)c2)cnc1N)c1c(Cl)ccc(F)c1Cl [Crizotinib] (partner 1 µM)
relative viability ([1]; first compound 0.005 µM): 0.945
relative viability ([1]; first compound 0.01581 µM): 0.829
relative viability ([1]; first compound 0.05 µM): 0.937
relative viability ([1]; first compound 0.1581 µM): 0.718
relative viability ([1]; first compound 0.5 µM): 0.715
relative viability ([2]; first compound 0.005 µM): 0.963
relative viability ([2]; first compound 0.01581 µM): 0.905
relative viability ([2]; first compound 0.05 µM): 0.901
relative viability ([2]; first compound 0.1581 µM): 1.21
relative viability ([2]; first compound 0.5 µM): 0.853
relative viability ([3]; first compound 0.005 µM): 1.03
relative viability ([3]; first compound 0.01581 µM): 0.856
relative viability ([3]; first compound 0.05 µM): 0.944
relative viability ([3]; first compound 0.1581 µM): 0.833
relative viability ([3]; first compound 0.5 µM): 0.826
relative viability ([4]; first compound 0.005 µM): 0.811
relative viability ([4]; first compound 0.01581 µM): 0.824
relative viability ([4]; first compound 0.05 µM): 0.796
relative viability ([4]; first compound 0.1581 µM): 0.79
relative viability ([4]; first compound 0.5 µM): 0.811
relative viability ([5]; first compound 0.005 µM): 0.769
relative viability ([5]; first compound 0.01581 µM): 0.807
relative viability ([5]; first compound 0.05 µM): 0.74
relative viability ([5]; first compound 0.1581 µM): 0.754
relative viability ([5]; first compound 0.5 µM): 0.791
relative viability ([6]; first compound 0.005 µM): 0.594
relative viability ([6]; first compound 0.01581 µM): 0.706
relative viability ([6]; first compound 0.05 µM): 0.622
relative viability ([6]; first compound 0.1581 µM): 0.604
relative viability ([6]; first compound 0.5 µM): 0.462
relative viability ([7]; first compound 0.005 µM): 0.762
relative viability ([7]; first compound 0.01581 µM): 0.742
relative viability ([7]; first compound 0.05 µM): 0.82
relative viability ([7]; first compound 0.1581 µM): 0.864
relative viability ([7]; first compound 0.5 µM): 0.705
relative viability ([8]; first compound 0.005 µM): 0.555
relative viability ([8]; first compound 0.01581 µM): 0.717
relative viability ([8]; first compound 0.05 µM): 0.657
relative viability ([8]; first compound 0.1581 µM): 0.645
relative viability ([8]; first compound 0.5 µM): 0.546
relative viability ([9]; first compound 0.005 µM): 0.656
relative viability ([9]; first compound 0.01581 µM): 0.603
relative viability ([9]; first compound 0.05 µM): 0.649
relative viability ([9]; first compound 0.5 µM): 0.536
relative viability ([10]; first compound 0.01581 µM): 0.794
relative viability ([10]; first compound 0.05 µM): 0.797
relative viability ([10]; first compound 0.1581 µM): 0.775
relative viability ([10]; first compound 0.5 µM): 0.701
relative viability ([11]; first compound 0.005 µM): 0.352
relative viability ([11]; first compound 0.01581 µM): 0.365
relative viability ([11]; first compound 0.05 µM): 0.313
relative viability ([11]; first compound 0.1581 µM): 0.364
relative viability ([11]; first compound 0.5 µM): 0.351
relative viability ([12]; first compound 0.005 µM): 0.965
relative viability ([12]; first compound 0.01581 µM): 0.946
relative viability ([12]; first compound 0.05 µM): 1.03
relative viability ([12]; first compound 0.1581 µM): 0.912
relative viability ([12]; first compound 0.5 µM): 1.03
relative viability ([13]; first compound 0.005 µM): 0.688
relative viability ([13]; first compound 0.01581 µM): 0.676
relative viability ([13]; first compound 0.05 µM): 0.607
relative viability ([13]; first compound 0.1581 µM): 0.72
relative viability ([13]; first compound 0.5 µM): 0.666
relative viability ([14]; first compound 0.005 µM): 1.09
relative viability ([14]; first compound 0.01581 µM): 1.12
relative viability ([14]; first compound 0.05 µM): 1.09
relative viability ([14]; first compound 0.1581 µM): 1.08
relative viability ([14]; first compound 0.5 µM): 0.874
relative viability ([15]; first compound 0.005 µM): 0.699
relative viability ([15]; first compound 0.01581 µM): 0.87
relative viability ([15]; first compound 0.05 µM): 0.912
relative viability ([15]; first compound 0.1581 µM): 0.802
relative viability ([15]; first compound 0.5 µM): 0.814
relative viability ([16]; first compound 0.005 µM): 0.236
relative viability ([16]; first compound 0.01581 µM): 0.266
relative viability ([16]; first compound 0.05 µM): 0.266
relative viability ([16]; first compound 0.1581 µM): 0.29
relative viability ([16]; first compound 0.5 µM): 0.32
relative viability ([17]; first compound 0.005 µM): 0.9
relative viability ([17]; first compound 0.01581 µM): 0.907
relative viability ([17]; first compound 0.05 µM): 1.03
relative viability ([17]; first compound 0.1581 µM): 0.845
relative viability ([17]; first compound 0.5 µM): 0.8
relative viability ([18]; first compound 0.005 µM): 0.832
relative viability ([18]; first compound 0.01581 µM): 0.845
relative viability ([18]; first compound 0.05 µM): 0.937
relative viability ([18]; first compound 0.1581 µM): 0.872
relative viability ([18]; first compound 0.5 µM): 0.775
relative viability ([19]; first compound 0.005 µM): 0.649
relative viability ([19]; first compound 0.01581 µM): 0.552
relative viability ([19]; first compound 0.05 µM): 0.568
relative viability ([19]; first compound 0.5 µM): 0.614
relative viability ([20]; first compound 0.005 µM): 0.863
relative viability ([20]; first compound 0.01581 µM): 0.905
relative viability ([20]; first compound 0.05 µM): 0.972
relative viability ([20]; first compound 0.1581 µM): 0.924
relative viability ([20]; first compound 0.5 µM): 0.857
relative viability ([21]; first compound 0.005 µM): 1.05
relative viability ([21]; first compound 0.01581 µM): 1.17
relative viability ([21]; first compound 0.05 µM): 1.19
relative viability ([21]; first compound 0.1581 µM): 1.17
relative viability ([21]; first compound 0.5 µM): 0.849
relative viability ([22]; first compound 0.005 µM): 0.557
relative viability ([22]; first compound 0.01581 µM): 0.939
relative viability ([22]; first compound 0.05 µM): 0.928
relative viability ([22]; first compound 0.1581 µM): 0.853
relative viability ([22]; first compound 0.5 µM): 0.919
